From ChEMBL document CHEMBL4017469, “First insight into structure-activity relationships of selective meprin β inhibitors” (Bioorg Med Chem Lett, 2017)

Experiments:
Meprin A subunit beta [1] = molecular target: T1, Meprin A subunit beta (Homo sapiens, UniProt Q16820); assay: Inhibition of recombinant human meprin beta expressed in baculovirus infected Sf9 insect cells using (MCA)-EDEDED-(K-epsilon-dnp) as substrate by fluorescence assay
T1 sequence (Q16820 whole entry): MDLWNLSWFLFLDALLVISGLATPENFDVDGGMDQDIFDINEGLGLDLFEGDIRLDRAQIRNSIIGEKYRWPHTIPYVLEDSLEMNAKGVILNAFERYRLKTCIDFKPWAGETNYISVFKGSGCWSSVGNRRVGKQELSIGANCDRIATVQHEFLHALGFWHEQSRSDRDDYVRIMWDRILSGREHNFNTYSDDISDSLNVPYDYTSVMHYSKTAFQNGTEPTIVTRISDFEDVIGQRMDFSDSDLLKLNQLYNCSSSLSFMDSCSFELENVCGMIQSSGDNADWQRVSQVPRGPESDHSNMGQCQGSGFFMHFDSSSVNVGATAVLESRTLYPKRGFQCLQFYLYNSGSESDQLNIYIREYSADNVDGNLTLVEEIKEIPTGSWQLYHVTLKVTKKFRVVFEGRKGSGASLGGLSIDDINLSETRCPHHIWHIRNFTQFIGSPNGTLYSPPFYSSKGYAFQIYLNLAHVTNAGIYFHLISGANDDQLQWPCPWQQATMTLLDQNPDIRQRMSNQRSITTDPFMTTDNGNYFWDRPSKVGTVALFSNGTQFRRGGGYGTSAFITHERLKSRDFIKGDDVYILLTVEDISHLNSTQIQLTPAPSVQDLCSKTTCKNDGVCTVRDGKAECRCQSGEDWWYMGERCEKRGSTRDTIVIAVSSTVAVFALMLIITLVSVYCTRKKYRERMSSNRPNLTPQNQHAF

Meprin A subunit beta [2] = molecular target: T1, Meprin A subunit beta; assay: Inhibition of recombinant human meprin beta expressed in yeast using Abz-YVAEAPK(Dnp)G-OH as substrate by fluorescence assay
Meprin A subunit alpha = molecular target: T2, Meprin A subunit alpha (Homo sapiens, UniProt Q16819); assay: Inhibition of recombinant human meprin alpha expressed in S2 insect cells using Abz-YVADAPK(Dnp)G-OH as substrate by fluorescence assay
T2 sequence (Q16819 whole entry): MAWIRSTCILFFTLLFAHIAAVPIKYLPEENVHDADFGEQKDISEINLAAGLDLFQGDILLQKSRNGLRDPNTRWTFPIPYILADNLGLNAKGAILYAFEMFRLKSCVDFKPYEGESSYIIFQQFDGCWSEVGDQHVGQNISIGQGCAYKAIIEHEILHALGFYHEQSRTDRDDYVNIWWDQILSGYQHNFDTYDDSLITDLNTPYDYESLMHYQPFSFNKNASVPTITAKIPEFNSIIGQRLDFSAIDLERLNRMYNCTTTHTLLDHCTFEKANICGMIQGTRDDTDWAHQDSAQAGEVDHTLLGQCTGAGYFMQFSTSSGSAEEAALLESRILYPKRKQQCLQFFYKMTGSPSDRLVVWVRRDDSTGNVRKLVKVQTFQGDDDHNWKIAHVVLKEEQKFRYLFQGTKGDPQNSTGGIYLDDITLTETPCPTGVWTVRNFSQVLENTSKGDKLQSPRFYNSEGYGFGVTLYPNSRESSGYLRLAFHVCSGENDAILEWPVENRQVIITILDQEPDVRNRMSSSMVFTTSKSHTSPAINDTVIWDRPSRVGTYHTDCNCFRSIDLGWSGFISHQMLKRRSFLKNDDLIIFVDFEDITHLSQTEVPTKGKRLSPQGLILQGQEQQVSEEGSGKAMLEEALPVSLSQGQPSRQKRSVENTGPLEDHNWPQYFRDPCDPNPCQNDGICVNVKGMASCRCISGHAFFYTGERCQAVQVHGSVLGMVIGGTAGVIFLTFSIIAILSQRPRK

[3] = molecular target: T3, Matrix metalloproteinase-9 (Homo sapiens, UniProt P14780); assay: Inhibition of APMA-activated recombinant human MMP9 expressed in CHO cells at 200 uM using Mca-PLGL-(DapDnp)-AR-NH2 as substrate by fluorescence assay
[4] = molecular target: T4, Disintegrin and metalloproteinase domain-containing protein 17 (Homo sapiens, UniProt P78536); assay: Inhibition of recombinant human C-terminal His6-tagged ADAM17 expressed in baculovirus infected Sf21 cells at 200 uM using Abz-LANAVRSSSR-(DapDnp)-NH2 as substrate by fluorescence assay
[5] = molecular target: T5, 72 kDa type IV collagenase (Homo sapiens, UniProt P08253); assay: Inhibition of APMA-activated recombinant human MMP2 expressed in CHO cells at 200 uM using Mca-PLGL-(DapDnp)-AR-NH2 as substrate by fluorescence assay
Homo sapiens [6] = species: Homo sapiens; assay: Selectivity ratio of IC50 APMA-activated recombinant human MMP2 expressed in CHO cells to IC50 for recombinant human meprin beta expressed in yeast; assay type: cell-based
Homo sapiens [7] = species: Homo sapiens; assay: Selectivity ratio of IC50 for recombinant human C-terminal His10-tagged ADAM10 expressed in baculovirus infected Sf21 cells to IC50 for recombinant human meprin beta expressed in yeast
Collagenase 3 [8] = molecular target: T6, Collagenase 3 (Homo sapiens, UniProt P45452); assay: Inhibition of APMA-activated recombinant human MMP13 expressed in mouse NS0 cells at 200 uM using Mca-PLGL-(DapDnp)-AR-NH2 as substrate by fluorescence assay
Homo sapiens [9] = species: Homo sapiens; assay: Selectivity ratio of IC50 for recombinant human meprin alpha expressed in S2 insect cells to IC50 for recombinant human meprin beta expressed in yeast
[10] = molecular target: T7, Disintegrin and metalloproteinase domain-containing protein 10 (Homo sapiens, UniProt O14672); assay: Inhibition of recombinant human C-terminal His10-tagged ADAM10 expressed in baculovirus infected Sf21 cells at 200 uM using Abz-LANAVRSSSR-(DapDnp)-NH2 as substrate by fluorescence assay
T7 sequence (O14672 whole entry): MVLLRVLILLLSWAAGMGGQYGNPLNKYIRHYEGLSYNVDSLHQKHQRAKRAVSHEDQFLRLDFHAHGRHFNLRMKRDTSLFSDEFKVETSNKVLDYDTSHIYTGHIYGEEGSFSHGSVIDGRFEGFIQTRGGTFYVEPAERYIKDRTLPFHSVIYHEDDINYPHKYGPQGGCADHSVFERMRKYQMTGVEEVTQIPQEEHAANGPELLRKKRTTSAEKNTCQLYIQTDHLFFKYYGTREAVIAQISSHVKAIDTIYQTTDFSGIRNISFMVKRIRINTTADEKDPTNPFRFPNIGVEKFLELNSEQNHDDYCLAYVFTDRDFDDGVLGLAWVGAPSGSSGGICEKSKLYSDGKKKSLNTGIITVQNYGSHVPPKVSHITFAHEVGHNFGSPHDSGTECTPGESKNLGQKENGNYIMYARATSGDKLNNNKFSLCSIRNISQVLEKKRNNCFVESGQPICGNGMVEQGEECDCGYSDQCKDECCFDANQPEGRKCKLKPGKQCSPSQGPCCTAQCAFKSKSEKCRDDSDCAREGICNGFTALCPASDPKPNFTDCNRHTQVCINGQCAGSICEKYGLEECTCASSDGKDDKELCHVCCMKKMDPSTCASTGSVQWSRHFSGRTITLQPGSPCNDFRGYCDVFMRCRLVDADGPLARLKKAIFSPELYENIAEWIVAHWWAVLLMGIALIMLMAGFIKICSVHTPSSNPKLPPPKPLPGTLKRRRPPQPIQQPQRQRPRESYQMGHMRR

[11] = molecular target: T3, Matrix metalloproteinase-9; assay: Inhibition of APMA-activated recombinant human MMP9 expressed in CHO cells using Mca-PLGL-(DapDnp)-AR-NH2 as substrate by fluorescence assay
[12] = molecular target: T4, Disintegrin and metalloproteinase domain-containing protein 17; assay: Inhibition of recombinant human C-terminal His6-tagged ADAM17 expressed in baculovirus infected Sf21 cells using Abz-LANAVRSSSR-(DapDnp)-NH2 as substrate by fluorescence assay
[13] = molecular target: T7, Disintegrin and metalloproteinase domain-containing protein 10; assay: Inhibition of recombinant human C-terminal His10-tagged ADAM10 expressed in baculovirus infected Sf21 cells using Abz-LANAVRSSSR-(DapDnp)-NH2 as substrate by fluorescence assay
[14] = molecular target: T5, 72 kDa type IV collagenase; assay: Inhibition of APMA-activated recombinant human MMP2 expressed in CHO cells using Mca-PLGL-(DapDnp)-AR-NH2 as substrate by fluorescence assay
Collagenase 3 [15] = molecular target: T6, Collagenase 3; assay: Inhibition of APMA-activated recombinant human MMP13 expressed in mouse NS0 cells using Mca-PLGL-(DapDnp)-AR-NH2 as substrate by fluorescence assay
Meprin A subunit beta [16] = molecular target: T1, Meprin A subunit beta; assay: Inhibition of human meprin beta expressed in baculovirus infected BTI-TN-5B1-4 insect cells using N-benzoyl-L-tyrosylp-aminobenzoic acid as substrate

T5 sequence (P08253 whole entry): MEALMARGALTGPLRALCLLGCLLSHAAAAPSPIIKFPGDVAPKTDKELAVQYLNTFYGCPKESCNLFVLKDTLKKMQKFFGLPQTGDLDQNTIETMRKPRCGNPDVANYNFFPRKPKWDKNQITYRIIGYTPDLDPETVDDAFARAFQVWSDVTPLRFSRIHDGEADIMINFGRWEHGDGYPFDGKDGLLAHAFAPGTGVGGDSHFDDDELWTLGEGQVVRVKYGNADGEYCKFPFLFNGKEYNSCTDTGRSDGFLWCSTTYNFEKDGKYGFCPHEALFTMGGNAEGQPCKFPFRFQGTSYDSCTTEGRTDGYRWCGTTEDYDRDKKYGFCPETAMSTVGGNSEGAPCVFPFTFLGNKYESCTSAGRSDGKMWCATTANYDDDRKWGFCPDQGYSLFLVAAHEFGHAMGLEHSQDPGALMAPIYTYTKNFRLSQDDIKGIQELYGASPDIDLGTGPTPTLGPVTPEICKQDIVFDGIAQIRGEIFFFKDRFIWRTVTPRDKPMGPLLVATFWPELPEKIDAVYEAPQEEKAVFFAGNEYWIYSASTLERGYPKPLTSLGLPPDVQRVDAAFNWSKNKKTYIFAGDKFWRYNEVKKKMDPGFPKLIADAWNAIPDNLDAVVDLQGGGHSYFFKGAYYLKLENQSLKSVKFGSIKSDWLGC
T3 sequence (P14780 whole entry, the tested form may be a part): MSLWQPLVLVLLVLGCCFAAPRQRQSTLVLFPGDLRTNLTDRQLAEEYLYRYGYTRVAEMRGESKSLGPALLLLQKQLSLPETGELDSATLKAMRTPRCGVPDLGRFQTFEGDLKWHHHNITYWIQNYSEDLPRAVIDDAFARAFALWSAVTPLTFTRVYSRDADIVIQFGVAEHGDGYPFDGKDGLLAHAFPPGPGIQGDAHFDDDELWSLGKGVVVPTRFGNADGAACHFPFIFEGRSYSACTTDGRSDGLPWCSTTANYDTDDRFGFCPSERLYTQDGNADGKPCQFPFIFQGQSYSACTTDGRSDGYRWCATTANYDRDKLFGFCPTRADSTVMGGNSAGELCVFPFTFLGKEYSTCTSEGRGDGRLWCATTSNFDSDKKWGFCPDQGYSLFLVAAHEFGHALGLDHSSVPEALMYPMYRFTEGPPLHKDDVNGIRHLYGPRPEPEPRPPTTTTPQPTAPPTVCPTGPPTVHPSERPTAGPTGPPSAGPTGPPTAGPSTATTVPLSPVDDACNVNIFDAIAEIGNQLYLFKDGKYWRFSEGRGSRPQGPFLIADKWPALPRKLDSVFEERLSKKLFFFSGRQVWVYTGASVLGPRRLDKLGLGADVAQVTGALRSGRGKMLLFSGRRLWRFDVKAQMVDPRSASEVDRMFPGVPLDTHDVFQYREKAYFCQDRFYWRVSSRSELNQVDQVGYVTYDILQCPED
T4 sequence (P78536 whole entry, the tested form may be a part): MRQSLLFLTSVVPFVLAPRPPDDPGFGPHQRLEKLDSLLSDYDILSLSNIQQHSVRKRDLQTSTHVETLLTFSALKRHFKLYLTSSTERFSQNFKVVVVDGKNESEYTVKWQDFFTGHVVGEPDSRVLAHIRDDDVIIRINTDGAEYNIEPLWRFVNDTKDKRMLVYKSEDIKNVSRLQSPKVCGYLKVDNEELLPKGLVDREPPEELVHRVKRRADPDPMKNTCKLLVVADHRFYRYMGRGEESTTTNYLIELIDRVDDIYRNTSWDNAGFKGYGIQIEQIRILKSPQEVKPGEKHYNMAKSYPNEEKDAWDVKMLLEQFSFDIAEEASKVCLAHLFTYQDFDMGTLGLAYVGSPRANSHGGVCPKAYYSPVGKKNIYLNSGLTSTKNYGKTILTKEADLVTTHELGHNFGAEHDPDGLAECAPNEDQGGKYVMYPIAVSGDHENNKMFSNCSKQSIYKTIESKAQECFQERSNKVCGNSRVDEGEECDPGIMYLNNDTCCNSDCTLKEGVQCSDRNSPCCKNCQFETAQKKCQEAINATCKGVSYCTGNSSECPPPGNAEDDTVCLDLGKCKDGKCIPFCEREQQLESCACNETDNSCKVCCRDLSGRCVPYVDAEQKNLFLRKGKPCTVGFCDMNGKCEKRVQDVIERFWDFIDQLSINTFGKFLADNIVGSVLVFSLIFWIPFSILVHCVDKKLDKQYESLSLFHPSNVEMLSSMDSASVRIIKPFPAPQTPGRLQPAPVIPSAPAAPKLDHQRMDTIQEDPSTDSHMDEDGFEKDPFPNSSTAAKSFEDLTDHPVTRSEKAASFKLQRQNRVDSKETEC

Work on `O=C(Nc1cc(C(=O)Nc2ccc(S(=O)(=O)O)cc2S(=O)(=O)O)cc(C(=O)Nc2ccc(S(=O)(=O)O)cc2S(=O)(=O)O)c1)Nc1cc(C(=O)Nc2ccc(S(=O)(=O)O)cc2S(=O)(=O)O)cc(C(=O)Nc2ccc(S(=O)(=O)O)cc2S(=O)(=O)O)c1` yielded a Ki (Meprin A subunit beta [1]) of 22 nM.
`O=C(CCNS(=O)(=O)c1cc(Cl)c(O)c(Cl)c1)NO` gave an IC50 (Meprin A subunit beta [2]) of 400 nM.
With `O=C(CN(Cc1cccc(C(=O)O)c1)S(=O)(=O)c1cccc(C(=O)O)c1)NO` the IC50 (Meprin A subunit alpha) was 27400 nM, the “inhibition (INH)” value [3] was “Not Active” and the “inhibition (INH)” value [4] was “Not Active”. For the same molecule, the “inhibition (INH)” value [5] was “Not Active”, the Ratio IC50 (Homo sapiens [6]) was over 100 and the Ratio IC50 (Homo sapiens [7]) was over 100. The “inhibition (INH)” value (Collagenase 3 [8]) was “Not Active”, the Ratio IC50 (Homo sapiens [9]) was 500 and the “inhibition (INH)” value [10] was “Not Active”.
Molecule `COc1ccc(S(=O)(=O)N(CC(=O)NO)Cc2cccc(C(=O)O)c2)cc1` has an IC50 (Meprin A subunit alpha) of 3290 nM, an IC50 [11] of 50 nM and an IC50 [12] of 1240 nM. It also gave an IC50 [13] of 11700 nM, a Ratio IC50 (Homo sapiens [7]) of over 100 and an IC50 [14] of 2 nM. It also gave a Ratio IC50 (Homo sapiens [9]) of 60 and an IC50 (Collagenase 3 [15]) of 0.3 nM.
`O=C(CNS(=O)(=O)c1cc(Cl)c(O)c(Cl)c1)NO` showed an IC50 (Meprin A subunit beta [2]) of 430 nM.
`O=C(O)Cc1ccc(S(=O)(=O)NCC(=O)NO)cc1` showed an IC50 (Meprin A subunit beta [2]) of 5030 nM.
In the case of `COc1ccc(S(=O)(=O)N(C)CC(=O)NO)cc1`, the IC50 (Meprin A subunit beta [2]) is reported as 32500 nM.
`O=C(CCNS(=O)(=O)c1ccc(C(=O)O)cc1)NO` showed an IC50 (Meprin A subunit beta [2]) of 340 nM.
`O=C(CNS(=O)(=O)c1ccc(Cl)cc1)NO` was tested, and the IC50 (Meprin A subunit beta [2]) was 17200 nM.
For `CCCCC[C@H](CC(=O)NO)C(=O)N[C@H](C(=O)N1CCC[C@H]1CO)C(C)C` [ACTINONIN], the Ki (Meprin A subunit beta [16]) was 2000 nM.
In the case of `O=C(CN(Cc1cccc(C(=O)O)c1)S(=O)(=O)c1ccc(C(=O)O)cc1)NO`, the IC50 (Meprin A subunit beta [2]) is reported as 320 nM.
With `COc1ccc(S(=O)(=O)N(CC(=O)NO)Cc2ccc(C(=O)O)cc2)cc1` the IC50 (Meprin A subunit beta [2]) was 980 nM.
`O=C(CNS(=O)(=O)c1cccc(C(=O)O)c1)NO` gave an IC50 (Meprin A subunit beta [2]) of 310 nM.
In the case of `COc1ccc(S(=O)(=O)N(CCc2ccccc2)CC(=O)NO)cc1`, the IC50 (Meprin A subunit beta [2]) is reported as 42900 nM.
For `O=C(CCNS(=O)(=O)c1cccc(C(=O)O)c1)NO`, the IC50 (Meprin A subunit beta [2]) was 220 nM.
